Data reported in PMC12037037 (Proceedings of the National Academy of Sciences of the …, 2025).
“Also recorded” adds a separate entry of the source.

Key:
[1] = molecular target: T1, U2OS cells expressing 5-HT2ARs (β-arrestin recruitment) (Homo sapiens, UniProt P28223); assay: PathHunter β-arrestin agonist assay; type: cell-based; details: free base
T1 construct: host or cells: U2OS

[2] = molecular target: T2, 5-HT2A receptors (Gi1, Gi3 activation) (Homo sapiens, UniProt P28223); assay: BRET-based assays of Gi1 and Gi3 activation; type: cell-based
T2 construct: expressed in transfected cells; host or cells: HEK293T (transient)

[3] = molecular target: T3, human ether-a-go-go related gene (hERG) channels (Homo sapiens, UniProt Q12809); assay: hERG inhibition assay (Apconix); type: biochemical
T3 construct: Apconix
Protocol: (§1) (1 picture or pasted object on this page, not shown here)
(§2) Comparison Between WT and S242A5.46 psychLight Variants. Activity in WT and S242A5.46 mutant forms of PsychLight was quantified by deriving ligand activity ratios (log(Emax/EC50)). […]
(§3) and (+)-JRT were fit to a log(agonist) vs. response (three parameters) curve. The Emax/EC50 analysis was performed as previously described in detail by others (16):
(§4) Response = Basal + E!"# − Basal where Emax and Basal represent the top and bottom asymptotes of the curve fit, respectively; EC50 represents the concentration that gives a response halfway between Emax and Basal; and Log[A] is the logarithm of the agonist concentration. Then, ligand activity ratios, log(Emax/EC50) were calculated for each test ligand and statistical comparisons made between each other and between genotypes using a two-way ANOVA and significant interaction effects followed by a Šídák's multiple comparisons test.
(§5) ADME and hERG Inhbition Assays. […]
(§6) Briefly, 96 well plates were coated with poly-D-lysine and approximately 15,000 cells/well. […] Images were analyzed using the Simple Neurite Tracer and Sholl analysis plug-ins for ImageJ Fiji (version 1.51N). […] All images were taken and analyzed by an experimenter blinded to treatment conditions.
(§7) Spinogenesis Assays Using Cultured Rat Cortical Neurons. […] Images were analyzed using ImageJ Fiji (version 1.51N). […]

[4] = ADME assays (Eurofins, ChemPartner); type: in vitro ADME; details: overall statement
Protocol: as §1, §2, §3, §4, §5, §6, §7

[5] = test system: cultured rat embryonic cortical neurons; assay: Neuritogenesis assay (Sholl analysis, DIV6); type: cell-based
[6] = test system: male C57BL/6J mice; assay: Head-twitch antagonism of an LSD dose response (Transpharmation); type: in vivo; details: +JRT PreTx (1 mg/kg IP, 30 min prior) then VEH (1% DMSO); -JRT 0.7 ± 0.3
[7] = Pharmacokinetics studies (plasma and brain); type: in vivo, rats

T3 sequence (Q12809 whole entry): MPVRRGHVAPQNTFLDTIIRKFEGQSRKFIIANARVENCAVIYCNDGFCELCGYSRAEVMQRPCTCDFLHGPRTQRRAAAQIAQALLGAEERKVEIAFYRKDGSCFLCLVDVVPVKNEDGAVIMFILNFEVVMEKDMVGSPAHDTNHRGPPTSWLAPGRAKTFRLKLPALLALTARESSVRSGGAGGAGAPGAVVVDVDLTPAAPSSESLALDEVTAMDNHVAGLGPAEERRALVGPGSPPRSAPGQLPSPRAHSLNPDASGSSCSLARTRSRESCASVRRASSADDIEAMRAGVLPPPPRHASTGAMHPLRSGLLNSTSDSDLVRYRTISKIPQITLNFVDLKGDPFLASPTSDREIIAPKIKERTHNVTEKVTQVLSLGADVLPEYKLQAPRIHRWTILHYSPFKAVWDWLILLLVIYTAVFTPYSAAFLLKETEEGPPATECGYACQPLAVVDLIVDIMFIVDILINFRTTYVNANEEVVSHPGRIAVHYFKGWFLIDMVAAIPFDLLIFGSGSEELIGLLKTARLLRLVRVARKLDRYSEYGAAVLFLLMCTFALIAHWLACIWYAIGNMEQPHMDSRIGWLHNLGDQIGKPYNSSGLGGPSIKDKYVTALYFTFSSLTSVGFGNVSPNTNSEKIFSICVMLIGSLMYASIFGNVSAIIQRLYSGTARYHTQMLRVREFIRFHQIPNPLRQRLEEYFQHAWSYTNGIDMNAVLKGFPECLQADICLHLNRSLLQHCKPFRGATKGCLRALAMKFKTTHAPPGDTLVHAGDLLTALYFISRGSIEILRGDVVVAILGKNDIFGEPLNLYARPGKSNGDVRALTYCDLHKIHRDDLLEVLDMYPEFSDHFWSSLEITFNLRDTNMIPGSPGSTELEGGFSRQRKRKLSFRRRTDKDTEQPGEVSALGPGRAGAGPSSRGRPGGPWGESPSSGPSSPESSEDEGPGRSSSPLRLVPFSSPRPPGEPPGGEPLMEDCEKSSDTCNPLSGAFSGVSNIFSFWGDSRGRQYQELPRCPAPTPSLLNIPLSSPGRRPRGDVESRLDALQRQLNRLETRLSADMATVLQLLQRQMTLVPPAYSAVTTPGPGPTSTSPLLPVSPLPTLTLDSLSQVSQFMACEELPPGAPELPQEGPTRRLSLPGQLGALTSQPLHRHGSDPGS
T1 sequence (P28223 whole entry): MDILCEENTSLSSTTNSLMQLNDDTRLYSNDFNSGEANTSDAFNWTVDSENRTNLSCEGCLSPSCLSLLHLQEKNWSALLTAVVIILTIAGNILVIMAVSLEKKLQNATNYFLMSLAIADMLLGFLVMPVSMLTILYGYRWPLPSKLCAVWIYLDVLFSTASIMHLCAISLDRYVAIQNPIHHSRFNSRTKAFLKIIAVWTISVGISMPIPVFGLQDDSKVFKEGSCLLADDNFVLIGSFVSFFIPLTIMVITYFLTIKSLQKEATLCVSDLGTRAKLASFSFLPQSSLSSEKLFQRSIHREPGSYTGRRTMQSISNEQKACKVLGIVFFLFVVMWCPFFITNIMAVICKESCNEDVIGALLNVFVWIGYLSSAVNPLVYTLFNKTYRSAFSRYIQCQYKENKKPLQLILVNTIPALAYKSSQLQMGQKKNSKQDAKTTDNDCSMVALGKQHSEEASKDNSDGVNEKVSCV
T2 sequence (P28223 whole entry): as above

In the case of `CCN(CC)C(=O)[C@@H]1C=C2c3cccc4ccn(c34)C[C@H]2N(C)C1` [(+)-JRT], the “β-arrestin recruitment through 5-HT2A receptor activation” value [1] is reported as “potent partial agonist; also recorded: not able to recruit β-arrestin through 5-HT2A receptor activation with high efficacy”, the “Gi activation following stimulation of 5-HT2A receptors” value [2] is reported as “does not activate” and the hERG channel inhibition [3] is reported as “does not inhibit hERG channels; also recorded: did not inhibit”. For the same compound, the ADME properties [4] was “excellent”, the “Nmax (maximum number of crossings of the Sholl plots)” value ([5]; 1 μM, DIV6, compared to vehicle control) was “increased Nmax values to a greater extent than CLZ” and the “Area under the curves of the Sholl plots (Figure S8D)” value ([5]; 1 µM, DIV6, VEH 1.000 ± 0.05010, mean ± SEM) was 1.193 ± 0.05057. The “Total branches (Figure S8C)” value ([5]; 1 µM, DIV6, VEH 2.325 ± 0.2641, mean ± SEM) was 4.121 ± 0.3838, the “Number of primary dendrites (Figure S8B)” value ([5]; 1 µM, DIV6, VEH 6.275 ± 0.2292, mean ± SEM) was 8.152 ± 0.2824 and the “Head-twitch response over 20 min (Figure S9)” value [6] was 3.9 ± 0.567. For the same compound, the “Presence in rat brain and plasma within 2 h” value ([7]; 1 mg/kg IP dose) was “nearly absent”, the “Levels in plasma or brain at 4 h” value ([7]; 1 mg/kg IP, (+)-JRT fumarate, rats) was “below the limit of quantification” and the “Brain concentration relative to the Ki at the 5-HT2AR” value ([7]; 1 mg/kg, rat) was ~ 20 fold.
